Laboratory results from patent US9260429B2, “Pyrido[3,4-B]indoles and methods of use” (Medivation Technologies, Inc., priority 2008, dated 2016).
Like-named read-outs stand apart in the source and are kept apart here.

Key:
[1] = molecular target: T1, human recombinant adrenergic α1D receptor (Homo sapiens, UniProt P25100); assay: Adrenergic α1D radioligand binding ([3H]Prozosin)
T1 construct: expressed in transfected cells; host or cells: HEK-293 cells
T1 sequence (P25100 1-572): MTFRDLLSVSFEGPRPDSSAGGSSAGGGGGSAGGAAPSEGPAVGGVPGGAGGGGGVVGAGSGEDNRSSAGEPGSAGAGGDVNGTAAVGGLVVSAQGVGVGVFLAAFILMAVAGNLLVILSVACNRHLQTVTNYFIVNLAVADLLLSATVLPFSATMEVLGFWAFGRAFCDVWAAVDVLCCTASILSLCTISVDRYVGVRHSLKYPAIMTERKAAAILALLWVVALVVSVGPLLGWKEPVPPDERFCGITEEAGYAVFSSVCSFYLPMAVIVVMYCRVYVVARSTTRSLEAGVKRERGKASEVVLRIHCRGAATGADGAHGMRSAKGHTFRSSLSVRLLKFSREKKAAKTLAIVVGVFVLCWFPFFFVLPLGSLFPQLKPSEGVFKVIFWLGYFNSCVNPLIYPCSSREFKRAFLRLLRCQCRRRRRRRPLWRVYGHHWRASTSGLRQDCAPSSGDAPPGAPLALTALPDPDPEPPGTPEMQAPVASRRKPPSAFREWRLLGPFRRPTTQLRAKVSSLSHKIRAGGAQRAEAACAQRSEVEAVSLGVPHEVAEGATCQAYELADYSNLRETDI
Experimental: To evaluate in radioligand binding assays the activity of compounds of the invention, human recombinant adrenergic a1D receptor expressed in human embryonic kidney (HEK-293) cells (Kenny, B. A. et al. Br. J. Pharmacol. 115(6):981, 1995) in a 50 mM Tris-HCl buffer, pH 7.4, was used. Compounds of invention were incubated with 0.6 nM [^3H]Prozosin for 60 minutes at 25° C. Non-specific binding was estimated in the presence of 10 μM phentolamine. Receptor proteins were filtered and washed, the filters were then counted to determine [^3H]Prozosin specifically bound. Compounds were screened at 1 μM or lower, using 1% DMSO as vehicle. Biochemical assay results are presented as the percent inhibition of specific binding in Table 4. Adrenergic a2A

[2] = molecular target: T2, human recombinant serotonin (5-Hydroxytryptamine) 5-HT7 receptor (Homo sapiens, UniProt P34969); assay: Serotonin 5-HT7 radioligand binding ([3H]LSD); details: for inhibition at 0.003 µM: compound concentration 3 nM; for inhibition at 0.01 µM: compound concentration 10 nM; for inhibition at 0.03 µM: compound concentration 0.03 μM; for inhibition at 0.1 µM: compound concentration 0.1 μM; for inhibition at 0.3 µM: compound concentration 0.3 μM
T2 construct: expressed in transfected cells; host or cells: CHO cells
Experimental: To evaluate in radioligand binding assays the activity of compounds of the invention, human recombinant serotonin (5-Hydroxytryptamine) 5-HT7 receptor expressed in Chinese hamster ovary (CHO) cells (Roth, B. L. et al., J. Pharmacol. Exp. Ther. 268:1403, 1994; Shen, Y. et al., J. Biol. Chem. 268:18200, 1993) in a modified Tris-HCl buffer (50 mM Tris-HCl, pH 7.4, 10 mM MgCl2, 0.5 mM EDTA) was used. Compounds of invention were incubated with 5.5 nM [^3H]Lysergic acid diethylamide (LSD) for 2 hours at 25° C. Non-specific binding was estimated in the presence of […] Serotonin (5-HT). Receptor proteins were filtered and washed, the filters were then counted to determine [^3H]LSD specifically bound. Compounds were screened at 1 μM or lower, using 1% DMSO as vehicle. Biochemical assay results are presented as the percent inhibition of specific binding in Table 5.

[3] = tested on: rat central imidazoline I2 receptor; assay: Central imidazoline I2 radioligand binding ([3H]Idazoxan); details: inhibition of specific [3H]Idazoxan binding
Experimental: To evaluate in radioligand binding assays the activity of compounds of the invention, rat central imidazoline I2 receptor obtained from Wistar Rat cerebral cortex (Brown, C. M. et al., Br. J. Pharmacol. 99:803, 1990) in a modified Tris-HCl buffer (50 mM Tris-HCl buffer, pH 7.4, 0.5 mM EDTA) was used. Compounds of the invention were incubated with 2 nM [^3H]Idazoxan for 30 minutes at 25° C. Non-specific binding was estimated in the presence of 1 μM Idazoxan. Receptor proteins were filtered and washed, the filters were then counted to determine [^3H]Idazoxan specifically bound. Compounds were screened at 1 μM or lower, using 1% DMSO as vehicle. Compounds of the invention were tested in this biochemical assay and percent inhibition of specific binding was determined.

[4] = 1 h, read-out: Percent Inhibition of ligand binding Adrenergic (1 μM ligand conc.) α1D
[5] = 2 h, read-out: Percent Inhibition of ligand binding Serotonin (1 μM ligand concentration) 5-HT7
[6] = compound concentration 1 μM, read-out: Percentage inhibition of ligand binding to Adrenergic α1D receptor
[7] = read-out: Percentage inhibition of ligand binding to 5-HT7 receptor

T2 sequence (P34969 whole entry): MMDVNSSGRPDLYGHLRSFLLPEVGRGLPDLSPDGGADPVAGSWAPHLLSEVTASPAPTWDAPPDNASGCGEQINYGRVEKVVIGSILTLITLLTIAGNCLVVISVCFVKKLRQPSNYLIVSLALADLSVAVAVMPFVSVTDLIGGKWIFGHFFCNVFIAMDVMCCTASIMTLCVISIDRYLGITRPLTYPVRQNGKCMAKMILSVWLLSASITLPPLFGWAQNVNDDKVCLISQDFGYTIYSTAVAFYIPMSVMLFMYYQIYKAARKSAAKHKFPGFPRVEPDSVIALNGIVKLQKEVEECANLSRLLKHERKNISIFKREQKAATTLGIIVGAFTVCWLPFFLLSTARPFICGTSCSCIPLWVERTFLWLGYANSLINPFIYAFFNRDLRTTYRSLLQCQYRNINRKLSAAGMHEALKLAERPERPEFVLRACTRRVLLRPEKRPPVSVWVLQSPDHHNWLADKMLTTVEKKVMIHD

## C/C(=C\n1c2c(c3cc(Cl)ccc31)CCN(C)C2C)c1ccccc1F (centres unmarked) [Compound 168]
[1]; [4]
  inhibition at 1 µM: 38%
[2]; [5]
  inhibition at 1 µM: 84%

## CC1c2c(c3cc(Cl)ccc3n2C#Cc2ccc(F)cc2)CCN1C (centres unmarked) [Compound 128]
[1]; [4]
  inhibition at 1 µM: 25%
[2]; [5]
  inhibition at 1 µM: 24%

## C/C(=C\n1c2c(c3cc(C)ccc31)CCN(C)C2C)c1ccc(Cl)cc1 (centres unmarked) [Compound 161, 9-(2-(4-chlorophenyl)prop-1-enyl)-1,2,6-trimethyl-2,3,4,9-tetrahydro-1H-pyrido[3,4-b]indole]
[1]; [4]
  inhibition at 1 µM: 32%
[2]; [5]
  inhibition at 1 µM: 93%

## CCC1c2c(c3cc(Cl)ccc3n2C#Cc2ccc(F)cc2)CCN1C (centres unmarked) [Compound 129]
[1]; [4]
  inhibition at 1 µM: 10%
[2]; [5]
  inhibition at 1 µM: 15%

## C/C(=C\n1c2c(c3cc(Cl)ccc31)CCN(C)C2)c1ccc(Cl)cc1 [Compound 98, 6-chloro-9-(2-(4-chlorophenyl)prop-1-enyl)-2-methyl-2,3,4,9-tetrahydro-1H-pyrido[3,4-b]indole]
[1]; [4]
  inhibition at 1 µM: 57%
[2]; [5]
  inhibition at 1 µM: 94%

## C/C(=C\n1c2c(c3cc(Cl)ccc31)CCN(C)C2C)c1ccc(Cl)cc1 (centres unmarked) [Compound 99, 6-chloro-9-(2-(4-chlorophenyl)prop-1-enyl)-1,2-dimethyl-2,3,4,9-tetrahydro-1H-pyrido[3,4-b]indole]
[1]; [4]
  inhibition at 1 µM: 20%
[2]; [5]
  inhibition at 1 µM: 68%

## C/C(=C/n1c2c(c3cc(Cl)ccc31)CCN(C)C2C)c1ccccc1F (centres unmarked) [Compound 167]
[1]; [4]
  inhibition at 1 µM: 36%
[2]; [5]
  inhibition at 1 µM: 97%

## CC1c2c(c3cc(Cl)ccc3n2CCc2ccc(F)cc2)CCN1C (centres unmarked) [Compound 81]
[1]; [4]
  inhibition at 1 µM: 64%
[2]; [5]
  inhibition at 1 µM: 82%

## CCC1c2c(c3cc(C)ccc3n2C(=O)Cc2ccc(F)cc2)CCN1C (centres unmarked) [Compound 159]
[1]; [4]
  inhibition at 1 µM: 25%
[2]; [5]
  inhibition at 1 µM: 49%

## C/C(=C/n1c2c(c3cc(C)ccc31)CCN(C)C2C)c1ccccc1F (centres unmarked) [Compound 165]
[1]; [4]
  inhibition at 1 µM: 26%
[2]; [5]
  inhibition at 1 µM: 91%

## C/C(=C\n1c2c(c3cc(Cl)ccc31)CCN(C)C2)c1ccc(F)cc1 [Compound 90, (E)-6-chloro-9-(2-(4-fluorophenyl)prop-1-enyl)-2-methyl-2,3,4,9-tetrahydro-1H-pyrido[3,4-b]indole]
[1]; [4]
  inhibition at 1 µM: 62%
[1]; [6]
  inhibition at 1 µM: 62%
[2]; [7]
  inhibition at 0.003 µM: -2%
  inhibition at 0.01 µM: 15%
  inhibition at 0.03 µM: 29%
  inhibition at 0.1 µM: 63%
  inhibition at 0.3 µM: 86%

## CN1CCc2c(n(CCc3ccc(F)cc3)c3ccc(Cl)cc23)C1 [Compound 3, 9-(4-fluorophenethyl)-6-chloro-2,3,4,9-tetrahydro-2-methyl-1H-pyrido[3,4-b]indole]
[3]
  Binding data (Percentage Inhibition) Imidazoline I2 Central (1 μM): 20%
[1]; [4]
  inhibition at 1 µM: 77%

## C#CCn1c2c(c3cc(Cl)ccc31)CCN(C)C2 [Compound 125, 6-chloro-2,3,4,9-tetrahydro-2-methyl-9-(prop-2-yn1)-1H-pyrido[3,4-b]indole]
[3]
  Binding data (Percentage Inhibition) Imidazoline I2 Central (1 μM): 60%
[1]; [4]
  inhibition at 1 µM: 93%

## C/C(=C\n1c2c(c3cc(C)ccc31)CCN(C)C2)c1ccc(F)cc1 [Compound 91, (E)-9-(2-(4-fluorophenyl)prop-1-enyl)-2,6-dimethyl-2,3,4,9-tetrahydro-1H-pyrido[3,4-b]indole]
[1]; [4]
  inhibition at 1 µM: 73%
[1]; [6]
  inhibition at 1 µM: 73%
[2]; [7]
  inhibition at 0.003 µM: 19%
  inhibition at 0.01 µM: 36%
  inhibition at 0.03 µM: 53%
  inhibition at 0.1 µM: 83%
  inhibition at 0.3 µM: 87%

## CCC1c2c(c3cc(Cl)ccc3n2CCc2ccc(F)cc2)CCN1C (centres unmarked) [Compound 78]
[1]; [4]
  inhibition at 1 µM: 42%
[2]; [5]
  inhibition at 1 µM: 99%

## CCC1c2c(c3cc(Cl)ccc3n2/C=C(\C)c2ccc(Cl)cc2)CCN1C (centres unmarked) [Compound 100, 6-chloro-9-(2-(4-chlorophenyl)prop-1-enyl)-1-ethyl-2-methyl-2,3,4,9-tetrahydro-1H-pyrido[3,4-b]indole]
[1]; [4]
  inhibition at 1 µM: 8%
[2]; [5]
  inhibition at 1 µM: 42%

## CCC1c2c(c3cc(C)ccc3n2/C=C(\C)c2ccc(Cl)cc2)CCN1C (centres unmarked) [Compound 160, 9-(2-(4-chlorophenyl)prop-1-enyl)-1-ethyl-2,6-dimethyl-2,3,4,9-tetrahydro-1H-pyrido[3,4-b]indole]
[1]; [4]
  inhibition at 1 µM: 25%
[2]; [5]
  inhibition at 1 µM: 84%

## C/C(=C\n1c2c(c3cc(C)ccc31)CCN(C)C2c1ccccc1)c1ccc(Cl)cc1 (centres unmarked) [Compound 164, 9-(2-(4-chlorophenyl)prop-1-enyl)-2,6-dimethyl-1-phenyl-2,3,4,9-tetrahydro-1H-pyrido[3,4-b]indole]
[1]; [4]
  inhibition at 1 µM: 10%
[2]; [5]
  inhibition at 1 µM: 8%

## C/C(=C\n1c2c(c3cc(C)ccc31)CCN(C)C2)c1ccc(Cl)cc1 [Compound 97, 9-(2-(4-chlorophenyl)prop-1-enyl)-2,6-dimethyl-2,3,4,9-tetrahydro-1H-pyrido[3,4-b]indole]
[1]; [4]
  inhibition at 1 µM: 66%
[2]; [5]
  inhibition at 1 µM: 98%

## Cc1ccc(CCn2c3c(c4cc(Cl)ccc42)CCN(C)C3C)cn1 (centres unmarked) [Compound 80]
[1]; [4]
  inhibition at 1 µM: 89%
[2]; [5]
  inhibition at 1 µM: 82%

## CCC1c2c(c3cc(C)ccc3n2C#Cc2ccc(Cl)cc2)CCN1C (centres unmarked) [Compound 162, 9-((4-chlorophenyl)ethynyl)-1-ethyl-2,6-dimethyl-2,3,4,9-tetrahydro-1H-pyrido[3,4-b]indole]
[1]; [4]
  inhibition at 1 µM: 19%
[2]; [5]
  inhibition at 1 µM: 27%

## CCC1c2c(c3cc(Cl)ccc3n2CC(C)(O)c2ccc(F)cc2)CCN1C (centres unmarked) [Compound 79]
[1]; [4]
  inhibition at 1 µM: 17%
[2]; [5]
  inhibition at 1 µM: 85%

## CC1CCN(C(=O)Cn2c3c(c4cc(Cl)ccc42)CCN(C)C3)CC1 [Compound 38, 2-(6-chloro-1,2,3,4-tetrahydro-2-methylpyrido[3,4-b]indol-9-yl)-1-(4-methylpiperidin-1-vyl)ethanone]
[3]
  Binding data (Percentage Inhibition) Imidazoline I2 Central (1 μM): 33%
[1]; [4]
  inhibition at 1 µM: 25%

## CC1c2c(c3cc(Cl)ccc3n2C#Cc2ccc(Cl)cc2)CCN1C (centres unmarked) [Compound 132, 6-chloro-9-((4-chlorophenyl)ethynyl)-1,2-dimethyl-2,3,4,9-tetrahydro-1H-pyrido[3,4-b]indole]
[1]; [4]
  inhibition at 1 µM: -8%
[2]; [5]
  inhibition at 1 µM: 35%

## C/C(=C\n1c2c(c3cc(C)ccc31)CCN(C)C2C)c1ccccc1F (centres unmarked) [Compound 166]
[1]; [4]
  inhibition at 1 µM: 69%
[1]; [6]
  inhibition at 1 µM: 69%
[2]; [5]
  inhibition at 1 µM: 92%
[2]; compound concentration 1 μM, read-out: Percentage inhibition of ligand binding to 5-HT7 receptor
  inhibition at 1 µM: 92%

## Cc1ccc2c(c1)c1c(n2CCc2ccc(C)nc2)CN(C)CC1 [Compound 1, 2,3,4,9-tetrahydro-2,6-dimethyl-9-(2-(6-methylpyridin-3-yl)ethyl)-1H-pyrido[3,4-b]indole]
[3]
  Binding data (Percentage Inhibition) Imidazoline I2 Central (1 μM): 40%
[1]; [4]
  inhibition at 1 µM: 65%

## Cc1ccc2c(c1)c1c(n2C(=O)Cc2ccc(Cl)cc2)C(c2ccccc2)N(C)CC1 (centres unmarked) [Compound 163]
[1]; [4]
  inhibition at 1 µM: 78%
[2]; [5]
  inhibition at 1 µM: 29%

## Cc1ccc2c(c1)c1c(n2CCC2CCCCC2)CN(C)CC1 [Compound 2, 9-(2-cyclohexylethyl)-2,3,4,9-tetrahydro-2,6-dimethyl-1H-pyrido[3,4-b]indole]
[3]
  Binding data (Percentage Inhibition) Imidazoline I2 Central (1 μM): 18%
[1]; [4]
  inhibition at 1 µM: 42%
